From PMC8165693, “Sensing Enzyme Activation Heat Capacity at the Single-Molecule Level Using Gold-Nanorod-Based Optical Whispering Gallery Modes” (ACS Applied Nano Materials, 2021) come the findings set out here.

The target in assay [1] is T1, maltose-inducible α-glucosidase (MalL) (Bacillus subtilis, UniProt O06994, S135C).
T1 construct: full-length, recombinant, purified as in earlier work
Description: ensemble steady-state kinetics, colorimetric assay in solution. It is filed as biochemical. The settings on record: free enzyme in solution; temperature of this constant not given.

Assay [2] has as its target T2, maltose-inducible α-glucosidase (MalL) (Bacillus subtilis, UniProt O06994).
T2 construct: full-length, recombinant, purified as in earlier work
The assay is described as above. The format is biochemical. The settings on record: free enzyme in solution; temperature of this constant not given. The text has this:
ensemble steady-state kinetics, colorimetric assay in solution on maltose-inducible α-glucosidase (MalL) | both the KM and ΔCP^‡ values are similar between WT MalL and S135C MalL

T2 sequence (O06994 whole entry): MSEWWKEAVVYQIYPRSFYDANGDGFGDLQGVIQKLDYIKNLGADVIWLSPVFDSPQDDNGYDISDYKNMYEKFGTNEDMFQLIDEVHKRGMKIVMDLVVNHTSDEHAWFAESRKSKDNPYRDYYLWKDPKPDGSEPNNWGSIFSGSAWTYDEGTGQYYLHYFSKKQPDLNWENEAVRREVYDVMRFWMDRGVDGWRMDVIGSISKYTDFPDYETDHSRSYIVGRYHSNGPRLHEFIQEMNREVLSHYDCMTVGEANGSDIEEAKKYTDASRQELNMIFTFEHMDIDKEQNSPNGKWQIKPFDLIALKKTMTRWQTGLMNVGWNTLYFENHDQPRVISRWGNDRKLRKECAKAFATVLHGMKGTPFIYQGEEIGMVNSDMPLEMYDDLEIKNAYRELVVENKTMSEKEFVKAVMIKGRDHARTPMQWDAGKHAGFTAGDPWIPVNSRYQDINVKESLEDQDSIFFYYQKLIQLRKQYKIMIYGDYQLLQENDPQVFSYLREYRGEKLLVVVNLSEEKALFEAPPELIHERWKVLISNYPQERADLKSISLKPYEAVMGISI
T1 sequence (O06994 whole entry S135C): as the sequence (O06994 whole entry) above, with S135C counted along it

The term Km denotes the concentration of substrate that gives half-maximal velocity. Consider 4-nitrophenyl-β-D-glucopyranoside, for which the Km turned out to be 141 ± 39.6 µM in assay [1] and 108 ± 34.2 µM in assay [2].
